Data: patent US9708325B2, “Sulfonimidoylpurinone compounds and derivatives for the treatment and prophylaxis of virus infection” (Hoffmann-La Roche Inc., priority 2015, dated 2017)
Converted amounts (≈) assume the structure as drawn. Like-named read-outs stand apart in the source and are kept apart here.

Assays:
human TLR7 = human TLR7 (Homo sapiens (Human), UniProt Q9NYK1); test: HEK-Blue-hTLR7 cells assay (SEAP reporter); format: cell-based; details: 20 hrs, read-out: HEK-Blue-hTLR7 (EC50 (μM))
Procedure, shortened: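 HEK-Blue cells stably carrying human TLR7 and an NF-κB-driven SEAP reporter, preincubated 24 h, then exposed to serially diluted compound (1% DMSO final) for 20 h at 37 °C. Supernatant SEAP measured with QUANTI-Blue substrate, 2 h at 37 °C, absorbance read at 620–655 nm.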

LYSA solubility = format: physicochemical; details: for solubility thermodynamic: 0.05 M phosphate buffer, pH 6.5, aqueous buffer, thermodynamic from solid
Procedure: LYSA solubility assay is used to determine the aqueous solubility of a compound. Samples were prepared in duplicate from 10 mM DMSO stock solution. […] After one night, the solutions were filtered using a microtiter filter plate. Then the filtrate and its 1/10 dilution were analyzed by HPLC-UV.

hERG channel = hERG channel (Homo sapiens (Human), UniProt Q12809); test: hERG channel inhibition assay (patch-clamp, CHOhERG cells); format: cell-based
Procedure: The hERG K^+ channels were cloned in humans and stably expressed in a CHO (Chinese hamster ovary) cell line. CHOhERG cells were used for patch-clamp (voltage-clamp, whole-cell) experiments. Cells were stimulated by a voltage pattern to activate hERG channels and conduct IKhERG currents (rapid delayed outward rectifier potassium current of the hERG channel). […] Thereafter, the test compound was added to the preparation at increasing concentrations. For each concentration, an attempt was made to reach a steady-state effect, usually, this was achieved within 3-10 min at which time the next highest concentration was applied. The amplitude and kinetics of IKhERG are recorded in each concentration of the drug which were compared to the control values (taken as 100%). (references: Redfern W S, Carlsson L, Davis A S, Lynch W G, MacKenzie I, Palethorpe S, Siegl P K, Strang I, Sullivan A T, Wallis R, Camm A J, Hammond T G. 2003; Relationships between preclinical cardiac electrophysiology, clinical QT interval prolongation and torsade de pointes for a broad range of drugs: evidence for a provisional safety margin in drug development. Cardiovasc. Res. 58:32-45, Sanguinetti M C, Tristani-Firouzi M. 2006; hERG potassium channels and cardiac arrhythmia. Nature 440:463-469, Webster R, Leishman D, Walker D. 2002; Towards a drug concentration effect relationship for QT prolongation and torsades de pointes. Curr. Opin. Drug Discov. Devel. 5:116-26).

[1] = Metabolic stability in human liver microsomes; details: 1 μM test compound, 0.5 mg/mL microsomal protein; 6.15 mL/min/kg is the limitation of assay sensitivity
Procedure, shortened: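 Test compound at 1 μM with 0.5 mg/mL microsomal protein in 100 mM potassium phosphate, pH 7.4, 37 °C, 10 min preincubation, reaction started with NADPH regenerating system. Sampled at 0, 3, 6, 9, 15 and 30 min, quenched with cold ACN, remaining parent by LC-MS/MS. No-NADPH controls at 0 and 30 min.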

[2] = human, CHO cells stably expressing hERG, read-out: hERG IC20

human TLR7, sequence (Q9NYK1 27-1049): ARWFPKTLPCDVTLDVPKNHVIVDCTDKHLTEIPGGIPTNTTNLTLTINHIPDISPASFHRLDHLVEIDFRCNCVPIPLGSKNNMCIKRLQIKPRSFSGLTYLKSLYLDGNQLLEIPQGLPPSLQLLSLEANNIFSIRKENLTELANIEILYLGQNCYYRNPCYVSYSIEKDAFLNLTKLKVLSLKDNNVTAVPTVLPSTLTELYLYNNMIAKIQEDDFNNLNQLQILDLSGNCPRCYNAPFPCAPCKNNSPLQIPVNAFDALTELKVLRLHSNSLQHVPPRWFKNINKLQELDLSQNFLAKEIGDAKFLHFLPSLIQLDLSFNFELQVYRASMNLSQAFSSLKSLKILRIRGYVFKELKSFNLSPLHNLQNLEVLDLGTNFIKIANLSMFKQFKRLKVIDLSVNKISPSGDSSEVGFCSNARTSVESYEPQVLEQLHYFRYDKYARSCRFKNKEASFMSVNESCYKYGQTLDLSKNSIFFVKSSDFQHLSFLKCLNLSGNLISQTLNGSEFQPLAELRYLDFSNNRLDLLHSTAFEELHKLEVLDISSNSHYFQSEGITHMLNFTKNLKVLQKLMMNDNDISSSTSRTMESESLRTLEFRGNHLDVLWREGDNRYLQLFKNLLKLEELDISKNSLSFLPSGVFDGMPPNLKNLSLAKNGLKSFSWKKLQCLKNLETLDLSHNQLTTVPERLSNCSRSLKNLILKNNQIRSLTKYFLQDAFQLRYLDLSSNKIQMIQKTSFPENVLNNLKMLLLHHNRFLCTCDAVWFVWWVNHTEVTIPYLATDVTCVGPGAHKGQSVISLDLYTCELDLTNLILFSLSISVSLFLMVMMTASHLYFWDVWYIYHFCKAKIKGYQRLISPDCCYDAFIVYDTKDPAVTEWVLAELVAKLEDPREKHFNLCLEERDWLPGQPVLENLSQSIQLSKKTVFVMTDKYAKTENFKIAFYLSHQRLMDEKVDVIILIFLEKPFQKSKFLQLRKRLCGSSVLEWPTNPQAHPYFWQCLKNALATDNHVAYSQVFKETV
hERG channel, sequence (Q12809 whole entry): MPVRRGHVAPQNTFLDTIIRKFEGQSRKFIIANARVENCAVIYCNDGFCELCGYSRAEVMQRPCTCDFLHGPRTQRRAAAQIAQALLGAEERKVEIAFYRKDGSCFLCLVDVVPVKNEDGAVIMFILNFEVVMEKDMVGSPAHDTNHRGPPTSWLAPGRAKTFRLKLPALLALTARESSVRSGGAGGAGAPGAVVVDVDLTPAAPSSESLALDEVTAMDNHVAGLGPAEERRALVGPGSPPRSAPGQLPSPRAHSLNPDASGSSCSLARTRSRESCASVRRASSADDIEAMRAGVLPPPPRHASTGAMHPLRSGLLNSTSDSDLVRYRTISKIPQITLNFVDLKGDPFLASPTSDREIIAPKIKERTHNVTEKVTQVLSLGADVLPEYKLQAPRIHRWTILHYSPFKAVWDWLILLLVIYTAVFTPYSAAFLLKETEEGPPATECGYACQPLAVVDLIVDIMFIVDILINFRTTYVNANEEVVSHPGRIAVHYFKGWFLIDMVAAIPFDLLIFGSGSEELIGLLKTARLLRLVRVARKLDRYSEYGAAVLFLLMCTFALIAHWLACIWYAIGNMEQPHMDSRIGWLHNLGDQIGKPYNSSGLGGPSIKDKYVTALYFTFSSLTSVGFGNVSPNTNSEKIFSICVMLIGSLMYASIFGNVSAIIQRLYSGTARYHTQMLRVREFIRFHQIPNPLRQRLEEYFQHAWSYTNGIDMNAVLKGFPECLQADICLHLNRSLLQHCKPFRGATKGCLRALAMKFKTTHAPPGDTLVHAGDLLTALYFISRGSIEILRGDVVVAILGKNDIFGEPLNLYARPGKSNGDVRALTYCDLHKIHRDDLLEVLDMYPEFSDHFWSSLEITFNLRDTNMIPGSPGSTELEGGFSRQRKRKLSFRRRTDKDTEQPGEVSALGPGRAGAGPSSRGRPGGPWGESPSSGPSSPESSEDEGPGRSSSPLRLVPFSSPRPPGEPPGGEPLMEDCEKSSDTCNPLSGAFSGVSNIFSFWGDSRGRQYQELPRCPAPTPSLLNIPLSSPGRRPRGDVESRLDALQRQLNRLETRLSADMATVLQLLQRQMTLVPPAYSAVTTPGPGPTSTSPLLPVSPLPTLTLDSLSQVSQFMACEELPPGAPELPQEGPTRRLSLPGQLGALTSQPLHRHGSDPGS

Structure (SMILES)	EC50 (human TLR7) [µM]	solubility thermodynamic (LYSA solubility) [µg/mL]	Safety ratio (hERG IC20/EC50) (hERG channel)	IC20 (hERG channel; read-out: hERG IC20) [µM]	LYSA (LYSA solubility; 0.05 M phosphate buffer (pH 6.5)) [µg/mL]	Human Liver Microsome Clearance [1] [mL/min/kg]	IC20 (hERG channel; [2]) [µM]	IC50 (hERG channel; read-out: hERG IC50) [µM]	IC50 (hERG channel) [µM]	IC20 (hERG channel; human) [µM]
CCCS(=N)(=O)c1nc(N)c2[nH]c(=O)n(Cc3ccccc3)c2n1 (single isomer, unassigned) [Example 4-A, 6-Amino-9-benzyl-2-(propylsulfonimidoyl)-7H-purin-8-one]	0.067	56 (≈ 162 µM)	>149	> 10	–	–	–	–	–	–
CCCS(=N)(=O)c1nc(N)c2[nH]c(=O)n(Cc3ccccc3)c2n1 (single isomer, unassigned) [Example 4-B, 6-Amino-9-benzyl-2-(propylsulfonimidoyl)-7H-purin-8-one]	–	–	>116	> 10	50	–	–	–	–	–
CCCS(=N)(=O)c1nc(N)c2[nH]c(=O)n(Cc3ccc(C)cc3)c2n1 (single isomer, unassigned) [Example 29-A, 6-Amino-2-(propylsulfonimidoyl)-9-(p-tolylmethyl)-7H-purin-8-one]	–	6 (≈ 16.6 µM)	>526	–	–	<6.15	–	–	–	–
CCS(=N)(=O)c1nc(N)c2[nH]c(=O)n(Cc3ccc(Cl)cc3)c2n1 (single isomer, unassigned) [Example 70-A, 6-Amino-9-[(4-chlorophenyl)methyl]-2-(ethylsulfonimidoyl)-7H-purin-8-one]	–	–	–	–	–	<6.15	–	–	–	–
CCS(=N)(=O)c1nc(N)c2[nH]c(=O)n(Cc3ccc(Cl)cc3)c2n1 (single isomer, unassigned) [Example 70-B, 6-Amino-9-[(4-chlorophenyl)methyl]-2-(ethylsulfonimidoyl)-7H-purin-8-one]	–	5 (≈ 13.6 µM)	–	–	–	<6.15	–	–	–	–
CCS(=N)(=O)c1nc(N)c2[nH]c(=O)n(Cc3ccc(C)cc3)c2n1 (single isomer, unassigned) [Example 71-A, 6-Amino-2-(ethylsulfonimidoyl)-9-(p-tolylmethyl)-7H-purin-8-one]	–	13 (≈ 37.5 µM)	>75	–	–	<6.15	–	–	–	–
CCCS(=N)(=O)c1nc(N)c2[nH]c(=O)n(Cc3ccccc3)c2n1 (centres unmarked) [Example 4, 6-Amino-9-benzyl-2-(propylsulfonimidoyl)-7H-purin-8-one]	0.065	21 (≈ 60.6 µM)	>154	–	–	<6.15	> 10	> 20	–	–
CCCS(=N)(=O)c1nc(N)c2[nH]c(=O)n(Cc3ccc(Cl)cc3)c2n1 (centres unmarked) [Example 9, 6-Amino-9-[(4-chlorophenyl)methyl]-2-(propylsulfonimidoyl)-7H-purin-8-one]	0.012	–	>833	–	–	–	> 10	> 20	–	–
CCCS(=N)(=O)c1nc(N)c2[nH]c(=O)n(Cc3ccc(F)c(F)c3)c2n1 (centres unmarked) [Example 27, 6-Amino-9-(3,4-difluorophenylmethyl)-2-(propylsulfonimidoyl)-7H-purin-8-one]	0.036	7 (≈ 18.3 µM)	>278	–	–	–	> 10	> 20	–	–
CCCS(=N)(=O)c1nc(N)c2[nH]c(=O)n(Cc3ccc(C)nc3)c2n1 (centres unmarked) [Example 34, 6-Amino-9-[(6-methyl-3-pyridyl)methyl]-2-(propylsulfonimidoyl)-7H-purin-8-one]	0.03	–	–	–	–	<6.15	–	–	> 20	> 10
CCCS(=N)(=O)c1nc(N)c2[nH]c(=O)n(Cc3ccc(C(=O)O)cc3)c2n1 (centres unmarked) [Example 39, 4-[[6-Amino-8-oxo-2-(propylsulfonimidoyl)-7H-purin-9-yl]methyl]benzoic acid]	0.17	> 520	>59	–	–	<6.15	> 10	> 20	–	–
